# Key:
# Type in all cases: physicochemical
# [1] = Accelerated stability test
# Protocol: (§1) In the following examples and experimental examples, the high performance liquid chromatography (HPLC) analyses were carried out under the following conditions: • Analytical column: C18, 4.6×250 mm, 5 μm • Mobile phase: buffer solution/acetonitrile=40/60 (v/v) • Buffer solution: ammonium formate (0.657 g) was taken and then added to a 1 L volumetric flask. Water was added thereto to the mark so as to dissolve ammonium formate and then the pH of the resulting solution was adjusted to pH 5.5±0.2 with a diluted formic acid. • Wavelength: 254 nm • Column temperature: 30° C. • Flow rate: 1.0 mL/min. • Injection volume: 10 μL
# (§2) The X-ray powder diffraction (XRPD) analyses were carried out with the PANalytical's X-pert Pro X-ray powder diffractometer. The measurements at the angles ranging from 3 to 80°2θ values were performed at a scanning rate of 3° per second, using CuKα1 radiation (λα1=1.54060 Å) produced at the conditions of 40 mA and 40 kV.
# The crystalline form A of the compound of Formula 1 obtained in Example 1 and the amorphous form of the compound of Formula 1 obtained in Preparation Example were stored at the accelerated condition (40° C., 75% RH) for 2 weeks, so as to evaluate the stabilities thereof.
# [2] = Thermal stability test; conditions: 100° C.
# Protocol: as §1, §2
# The crystalline form A of the compound of Formula 1 obtained in Example 1 and the amorphous form of the compound of Formula 1 obtained in Preparation Example were stored at the heat-condition (100° C.) for 2 weeks, so as to evaluate the stabilities thereof.
# [3] = Stability test on humidity
# Protocol: as §1, §2
# The crystalline form A of the compound of Formula 1 obtained in Example 1 and the amorphous form of the compound of Formula 1 obtained in Preparation Example were stored at the humid condition (25° C., 98% RH) for 2 weeks, so as to evaluate the stabilities thereof.
"Water contents ([1]; 40° C., 75% RH, 1 week)","Purity (as an anhydrous form) ([1]; 40° C., 75% RH, 2 weeks)","Water contents ([1]; 40° C., 75% RH, 2 weeks)","Water contents ([1]; 40° C., 75% RH, 1 day)","Water contents ([1]; 40° C., 75% RH, 2 days)","Purity (as an anhydrous form) ([1]; 40° C., 75% RH, Initial)","Water contents ([1]; 40° C., 75% RH, Initial)",Purity (as an anhydrous form) ([2]; 2 weeks),Water contents ([2]; 2 weeks),Purity (as an anhydrous form) ([2]; Initial),Water contents ([2]; Initial),enantiomer during the test period ([2]; during 2 weeks),"Water contents ([3]; 25° C., 98% RH, 1 week)","Purity (as an anhydrous form) ([3]; 25° C., 98% RH, 2 weeks)","Water contents ([3]; 25° C., 98% RH, 2 weeks)","Water contents ([3]; 25° C., 98% RH, 1 day)","Water contents ([3]; 25° C., 98% RH, 2 days)","Purity (as an anhydrous form) ([3]; 25° C., 98% RH, Initial)","Water contents ([3]; 25° C., 98% RH, Initial)",SMILES,change in the appearance ([2]; during 2 weeks),other results
2.52%,96.72%,2.60%,2.30%,2.64%,96.96%,1.05%,92.34%,0.34%,96.96%,1.05%,no enantiomer was detected,3.90%,96.55%,3.58%,3.20%,3.60%,96.96%,1.05%,"COC(OC)[C@]1(C)Oc2ccc(N)cc2[C@H](N(Cc2ncc[nH]2)c2ccc(Cl)cc2)[C@H]1O [amorphous form of the compound of Formula 1] [(2R,3R,4S)-6-amino-4-[N-(4-chlorophenyl)-N-(1H-imidazol-2-ylmethyl)amino]-3-hydroxy-2-methyl-2-dimethoxymethyl-3,4-dihydro-2H-1-benzopyran]",changed to brown color from the first day,"water contents over the storing time ([1]; 40° C., 75% RH, during 2 weeks): up to 2.64%; hygroscopicity ([1]; accelerated condition (40° C., 75% RH)): very high hygroscopicity; Water contents ([1]; accelerated condition, in 1 day): 2.30 wt/wt %; enantiomer during the test period ([3]; 25° C., 98% RH, during 2 weeks): no enantiomer was detected; water contents over the storing time ([3]; 25° C., 98% RH, during 2 weeks): up to 3.90%; hygroscopicity ([3]; humid condition (25° C., 98% RH)): very high hygroscopicity"
0.17%,99.34%,0.18%,0.18%,0.18%,99.43%,0.16%,99.25%,0.11%,99.43%,0.16%,no enantiomer was detected,0.29%,99.32%,0.27%,0.21%,0.24%,99.43%,0.16%,"COC(OC)[C@]1(C)Oc2ccc(N)cc2[C@H](N(Cc2ncc[nH]2)c2ccc(Cl)cc2)[C@H]1O [crystalline form A of the compound of Formula 1] [(2R,3R,4S)-6-amino-4-[N-(4-chlorophenyl)-N-(1H-imidazol-2-ylmethyl)amino]-3-hydroxy-2-methyl-2-dimethoxymethyl-3,4-dihydro-2H-1-benzopyran]",changed to pale yellow color from the first week,"XRPD analyses, crystalline form maintained ([1]; 40° C., 75% RH, during 2 weeks): the same crystalline form A was maintained; change in the appearance ([1]; 40° C., 75% RH, during 2 weeks): without any change in the appearance; enantiomer during the test period ([1]; 40° C., 75% RH, during 2 weeks): no enantiomer was detected; XRPD analyses, crystalline form maintained ([2]; during 2 weeks): the same crystalline form A was maintained; XRPD analyses, crystalline form maintained ([3]; 25° C., 98% RH, during 2 weeks): the same crystalline form A was maintained; change in the appearance ([3]; 25° C., 98% RH, during 2 weeks): without any change in the appearance; enantiomer during the test period ([3]; 25° C., 98% RH, during 2 weeks): no enantiomer was detected"
